Measured values from patent publication US20130072519A1, “2-PHENYL BENZOYLAMIDES” (priority 2010, published 2013).
pIC50: −log10 of the molar value.

Legend:
[1] = Human liver microsomal stability; format: in vitro ADME; conditions: Human Liver Microsomes 0.76 mg/mL, 1 μM compound, 37° C.; for Compound remaining (%) at 4 min: pH 7.4, 4 min; for Compound remaining (%) at 30 min: pH 7.4, 30 min
Method: (§1) Pooled human liver or intestinal microsomes (final concentration 0.76 mg/mL) were diluted in 100 mM potassium phosphate buffer (pH 7.4) and preincubated at 37° C. The compounds of interest were dissolved in DMSO (30 mM), diluted to 100 μM in acetonitrile or methanol, and added to the microsomal incubations to achieve a final concentration of 1 μM with 1% or less final organic solvent. The mixtures were incubated for 30 min at 37° C. Aliquots were removed at predetermined times and quenched with an excess acetonitrile, containing an internal standard, on ice. Following centrifugation, the analytes were quantified by liquid chromatography-tandem mass spectrometry (LC-MS/MS). The compound remaining (%) was calculated from the analyte area ratio at the predetermined time/initial analyte area ratio at time 0×100.

[2] = Human intestinal microsomal stability; format: in vitro ADME; conditions: Human Intestinal Microsomes 0.76 mg/mL, 1 μM compound, 37° C.; for Compound remaining (%) at 4 min: pH 7.4, 4 min; for Compound remaining (%) at 30 min: pH 7.4, 30 min
Method: as §1

[3] = system: Apolipoprotein B Secretion from HepG2 Cells; experiment: Inhibition of Apolipoprotein B secretion from HepG2 cells (ELISA); format: cell-based, human; conditions: 22-24 hours incubation, ApoB ELISA, Low/High IC50 columns give the 95% confidence interval
Method: Inhibition of Apolipoprotein B Secretion from HepG2 Cells
To assess the inhibitory effect of the compounds of the invention on ApoB production, an endogenously ApoB producing cell line, HEPG2, was implemented in an in vitro ELISA assay. HEPG2 cells are plated at 25,000 per well (96-well plates) in media consisting of DMEM Low Glucose, 1% NEAA (non-essential amino acids), 10% FBS (heat inactivated), 1% L-Glutamine, and 1% Antimycotic-Antibiotic and incubated for 16-18 hours at 37° C. and 5% CO2. After the 16-18 hour incubation, a 12 point half-log serial of the inhibitor (1000 nM-0.003 nM) is prepared, and 1.5 ul of the serial dilution is added to HEPG2 cells, which have had their media decanted and replaced with 148 ul of fresh media, and the cells are incubated for 22-24 hours at 37° C. and 5% CO2. Two and a half hours before the 22-24 hour incubation period is completed, Nunc Maxisorp plates are coated with 100 ul of primary (coating) antibody (goat anti-apoB), diluting to a ratio of 1:1000 in 1% Carbonate-Bicarbonate Coating Buffer and incubated for at least 2 hours at room temperature before the primary antibody is decanted and the wells of the microplate are washed with 200 ul of washing buffer (1% PBS, 0.05% Tween20). Next, 200 ul of blocking buffer (1% PBS, 1:500 Western Block, 5 mg/ml BSA) is added to the wells of the microplate, and incubated for at least 30 mins. Following the 22-24 hours incubation period, cell plates are removed from the incubator, 20 ul of supernatant from each well is aspirated, added to a corresponding well in 96 well plate containing 140 ul of diluent (1:2-Blocking Buffer: Washing Buffer), and mixed. Then, 120 ul is aspirated from the dilutent-supernatant plate, added to the blocked Nunc Maxisorp 96 well plate, and placed at room temperature on a shaker to mix for at least 2 hours. The secondary (capture) antibody (mouse anti-human apoB) is prepared at a ratio of 1:4000, and the detection antibody (goat anti-mouse HRP conjugated antibody) at a ratio of 1:10,000. For each antibody, 100 ul is added to each well of the microplate and the microplate is incubated at room temperature for 2 hours, washing the microplates between each antibody addition. Colorimetric development is achieved by adding 50 ul of TMB reagent to each well, incubating for 5 mins at room temperature, then adding 50 ul of 2M Sulfuric Acid to each well. Absorbance at 450 nm is monitored in an Envision plate reader to measure the amount of ApoB formed.
Results reported as average IC50, low and high IC50 range (95% confidence interval).

[4] = Homo sapiens, HepG2, HepG2 cells

Row | SMILES | Compound remaining (%) at 4 min [1] [%] | Compound remaining (%) at 30 min [1] [%] | Compound remaining (%) at 4 min [2] [%] | Compound remaining (%) at 30 min [2] [%] | pIC50 [3, 4] | pIC50 ([3]; HepG2 cells)
1 | CCOC(=O)C1(COC(=O)Cc2ccc(NC(=O)c3ccc(C)cc3-c3ccc(C(F)(F)F)cc3)c(C(=O)N(C)C)c2)c2ccccc2C(=O)N1C (single isomer, unassigned) [Example 56, ethyl 1-({2-[3-(dimethylcarbamoyl)-4-({[5-methyl-4′-(trifluoromethyl)biphenyl-2-yl]carbonyl}amino)phenyl]acetoxy}methyl)-2-methyl-3-oxoisoindoline-1-carboxylate] | 38 | 3 | 100 | 87 | 9.83 | 
2 | CCOC(=O)C1(COC(=O)Cc2ccc(NC(=O)c3cccc(OC)c3-c3ccc(C(F)(F)F)cc3)c(C(=O)N(C)C)c2)CCc2cccnc21 (single isomer, unassigned) [Example 61, ethyl 7-({2-[3-(dimethylcarbamoyl)-4-({[6-methoxy-4′-(trifluoromethyl)biphenyl-2-yl]carbonyl}amino)phenyl]acetoxy}methyl)-6,7-dihydro-5H-cyclopenta[b]pyridine-7-carboxylate] | 65 | 4.7 | 106 | 106 | 9.40 | 
3 | CCOC(=O)[C@]1(COC(=O)Cc2ccc(NC(=O)c3cccc(C)c3-c3ccc(C(F)(F)F)cc3)c(C(=O)N(C)C)c2)c2ccccc2C(=O)N1C [Example 49, Ethyl (1R)-1-({2-[3-(Dimethylcarbamoyl)-4-({[6-methyl-4′-(trifluoromethyl)biphenyl-2-yl]carbonyl}amino)phenyl]acetoxy}methyl)-2-methyl-3-oxoisoindoline-1-carboxylate] | 42 | 2.7 | 100 | 83 | 9.62 | 
4 | CCOC(=O)[C@]1(COC(=O)Cc2ccc(NC(=O)c3ccccc3-c3ccc(OC(C)C)cc3)c(C(=O)N(C)C)c2)c2ccccc2C(=O)N1C [Example 50, Ethyl (1R)-1-({2-[3-(dimethylcarbamoyl)-4-{[(4′-isopropoxybiphenyl-2-yl)carbonyl]amino}phenyl]acetoxy}methyl)-2-methyl-3-oxoisoindoline-1-carboxylate] | 48 | 3.7 | 100 | 92 | 9.91 | 
5 | CCOC(=O)[C@]1(COC(=O)Cc2ccc(NC(=O)c3ccc(OC)cc3-c3ccc(C(F)(F)F)cc3)c(C(=O)N(C)C)c2)c2ccccc2C(=O)N1C [Example 70, ethyl (1R)-1-({2-[3-(dimethylcarbamoyl)-4-({[5-methoxy-4′-(trifluoromethyl)biphenyl-2-yl]carbonyl}amino)phenyl]acetoxy}methyl)-2-methyl-3-oxoisoindoline-1-carboxylate] | 61 | 6.4 | 98 | 96 | 9.38 | 
6 | CCOC(=O)[C@]1(COC(=O)Cc2ccc(NC(=O)c3ccc(C)cc3-c3ccc(OC(C)C)cc3)c(C(=O)N(C)C)c2)c2ccccc2C(=O)N1C [Example 72, ethyl (1R)-1-({2-[3-(dimethylcarbamoyl)-4-{[(4′-isopropoxy-5-methylbiphenyl-2-yl)carbonyl]amino}phenyl]acetoxy}methyl)-2-methyl-3-oxoisoindoline-1-carboxylate] | 71 | 9.2 | 125 | 100 | 9.92 | 
7 | CCOC(=O)[C@]1(COC(=O)Cc2ccc(NC(=O)c3cccc(OC)c3-c3ccc(C(F)(F)F)cc3)c(C(=O)N(C)C)c2)c2ccccc2C(=O)N1C [Example 71, ethyl (1R)-1-({2-[3-(dimethylcarbamoyl)-4-({[6-methoxy-4′-(trifluoromethyl)biphenyl-2-yl]carbonyl}amino)phenyl]acetoxy}methyl)-2-methyl-3-oxoisoindoline-1-carboxylate] | 45 | 5.3 | 125 | 94 | 9.75 | 
8 | CCOC(=O)C1(COC(=O)Cc2ccc(NC(=O)c3ccc(C)cc3-c3ccc(C(F)(F)F)cc3)c(C(=O)N(C)C)c2)CCc2cccnc21 (single isomer, unassigned) [Example 59, ethyl 7-({2-[3-(dimethylcarbamoyl)-4-({[5-methyl-4′-(trifluoromethyl)biphenyl-2-yl]carbonyl}amino)phenyl]acetoxy}methyl)-6,7-dihydro-5H-cyclopenta[b]pyridine-7-carboxylate] | 22 | 1.1 | 102 |  | 9.15 | 
9 | CCOC(=O)C1(COC(=O)Cc2ccc(NC(=O)c3ccccc3-c3ccc(OC(C)C)cc3)c(C(=O)N(C)C)c2)CCc2cccnc21 (single isomer, unassigned) [Example 60, ethyl 7-({2-[3-(dimethylcarbamoyl)-4-({[4′-isopropoxybiphenyl-2-yl)carbonyl]amino}phenyl]acetoxy}methyl)-6,7-dihydro-5H-cyclopenta[b]pyridine-7-carboxylate] | 110 | 8.5 | 107 | 100 | 9.27 | 
10 | CCOC(=O)[C@]1(COC(=O)Cc2ccc(NC(=O)c3cccc(C)c3-c3ccc(C(F)(F)F)cc3)c(C(=O)N3CCCCC3)c2)c2ccccc2C(=O)N1C [Example 62, ethyl (1R)-2-methyl-1-({2-[4-({[6-methyl-4′-(trifluoromethyl)biphenyl-2-yl]carbonyl}amino)-3-(piperidin-1-ylcarbonyl)phenyl]acetoxy}methyl)-3-oxoisoindoline-1-carboxylate] |  |  |  |  | 8.93 | 
11 | CCOC(=O)C1(COC(=O)Cc2ccc(NC(=O)c3ccc(C(F)(F)F)cc3-c3ccc(C(F)(F)F)cc3)c(C(=O)N(C)C)c2)c2ccccc2C(=O)N1C (centres unmarked) [Example 55, ethyll-({2-[4-({[4′,5-bis(trifluoromethyl)biphenyl-2-yl]carbonyl}amino)-3-(dimethylcarbamoyl)phenyl]acetoxy}methyl)-2-methyl-3-oxoisoindoline-1-carboxylate] |  |  |  |  | 9.81 | 
12 | CCOC(=O)C1(COC(=O)Cc2ccc(NC(=O)c3ccccc3-c3ccc(C(F)(F)F)cc3)c(C(=O)N(C)C)c2)OC(=O)c2ccccc21 (centres unmarked) [Example 32] |  |  |  |  |  | 7.34
